Where two headings read alike, the source gives them in different places.
Assays:
[1] = Mouse PK study (IV and PO), plasma parent compound and psilocin by LC-MS/MS; format: in vivo; conditions: male, C57Bl/6, mouse, plasma; for C0: read-out: C0; for Vd: read-out: Vss
Text: Briefly, the procedure was as follows. […] 19, 2022.

DAT = DAT (Homo sapiens, UniProt Q01959); experiment: Neurotransmitter transporter uptake assay, blocker; format: cell-based
HTR1A (5-HT1A) = target: T1, HTR1A (5-HT1A) (Homo sapiens, UniProt P08908); experiment: EFC-based cAMP secondary messenger assay, agonist mode; format: cell-based
T1 sequence (P08908 1-422): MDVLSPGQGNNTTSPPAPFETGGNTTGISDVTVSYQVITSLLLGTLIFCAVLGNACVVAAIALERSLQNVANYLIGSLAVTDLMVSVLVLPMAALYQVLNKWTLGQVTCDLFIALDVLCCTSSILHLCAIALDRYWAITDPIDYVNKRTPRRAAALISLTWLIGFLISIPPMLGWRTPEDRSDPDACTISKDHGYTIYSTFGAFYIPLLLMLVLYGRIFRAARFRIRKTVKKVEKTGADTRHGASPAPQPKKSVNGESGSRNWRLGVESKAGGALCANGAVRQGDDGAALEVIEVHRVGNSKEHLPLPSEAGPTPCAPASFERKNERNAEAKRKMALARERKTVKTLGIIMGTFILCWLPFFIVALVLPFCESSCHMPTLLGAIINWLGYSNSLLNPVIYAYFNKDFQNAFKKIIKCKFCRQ

5-HT1A receptor = target: T2, 5-HT1A receptor (Homo sapiens, UniProt P08908); experiment: cAMP-Glo assay in +5-HT1A vs −5-HT1A CHO-K1 cells; format: cell-based; conditions: cAMP assay with 4 mM forskolin
T2 construct: host or cells: CHO-K1 (co-expressing Ga15)
T2 sequence (P08908 1-422): T1 sequence (P08908 1-422)

OPRD1 [2] = target: T3, OPRD1 (Homo sapiens, UniProt P41143); experiment: EFC-based cAMP secondary messenger assay, agonist mode; format: cell-based
OPRD1 [3] = target: T3, OPRD1; experiment: EFC-based cAMP secondary messenger assay, antagonist mode; format: cell-based
ADRA2A = target: T4, ADRA2A (Homo sapiens, UniProt P08913); experiment: EFC-based cAMP secondary messenger assay, agonist mode; format: cell-based
T4 sequence (P08913 1-465): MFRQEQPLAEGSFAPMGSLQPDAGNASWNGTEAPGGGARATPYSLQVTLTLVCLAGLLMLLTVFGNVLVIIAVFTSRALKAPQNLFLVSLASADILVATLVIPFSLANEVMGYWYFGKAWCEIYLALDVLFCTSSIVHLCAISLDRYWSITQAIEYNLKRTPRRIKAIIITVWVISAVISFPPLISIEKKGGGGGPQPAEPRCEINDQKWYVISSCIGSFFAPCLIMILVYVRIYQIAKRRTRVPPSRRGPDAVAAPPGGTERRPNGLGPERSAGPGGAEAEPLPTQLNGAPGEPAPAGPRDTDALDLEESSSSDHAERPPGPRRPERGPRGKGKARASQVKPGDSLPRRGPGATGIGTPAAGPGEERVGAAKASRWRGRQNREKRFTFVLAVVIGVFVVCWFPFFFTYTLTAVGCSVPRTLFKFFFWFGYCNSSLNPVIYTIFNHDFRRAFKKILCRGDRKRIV

[4] = iv, 1 mg/kg, C(XX) in plasma, 1 mg/kg i.v. C(XX), Mean ± SD
[5] = iv, 1 mg/kg, C(XX) in plasma, 1 mg/kg i.v. C(XX), per animal
[6] = oral, 1 mg/kg, 1 mg/kg oral C(XX), Mean ± SD, read-out: Plasma concentration of C(XX)
[7] = oral, 1 mg/kg, 1 mg/kg oral C(XX), per animal, BLQ <0.25 ng/mL, read-out: Plasma concentration of C(XX)
[8] = oral, 3 mg/kg, 3 mg/kg oral C(XX), Mean ± SD, read-out: Plasma concentration of C(XX)
[9] = oral, 3 mg/kg, 3 mg/kg oral C(XX), per animal, BLQ <0.25 ng/mL, read-out: Plasma concentration of C(XX)
[10] = oral, 10 mg/kg, 10 mg/kg oral C(XX), Mean ± SD, read-out: Plasma concentration of C(XX)
[11] = oral, 10 mg/kg, 10 mg/kg oral C(XX), per animal, BLQ <0.25 ng/mL, read-out: Plasma concentration of C(XX)
[12] = oral, 10 mg/kg, 10 mg/kg oral C(XX), mean (n = 2), read-out: Plasma concentration of C(XX)

T3 sequence (P41143 whole entry): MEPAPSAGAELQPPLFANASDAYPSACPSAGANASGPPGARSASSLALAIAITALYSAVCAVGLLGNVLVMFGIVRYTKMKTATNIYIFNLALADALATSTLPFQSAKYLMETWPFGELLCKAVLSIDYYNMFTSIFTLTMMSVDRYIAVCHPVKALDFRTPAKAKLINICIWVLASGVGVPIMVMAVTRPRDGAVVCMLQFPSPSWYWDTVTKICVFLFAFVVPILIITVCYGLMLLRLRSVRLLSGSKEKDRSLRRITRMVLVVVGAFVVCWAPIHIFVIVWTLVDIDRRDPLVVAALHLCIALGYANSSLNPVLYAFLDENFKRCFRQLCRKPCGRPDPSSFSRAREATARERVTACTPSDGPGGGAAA
Chain of DAT (Q01959 whole entry): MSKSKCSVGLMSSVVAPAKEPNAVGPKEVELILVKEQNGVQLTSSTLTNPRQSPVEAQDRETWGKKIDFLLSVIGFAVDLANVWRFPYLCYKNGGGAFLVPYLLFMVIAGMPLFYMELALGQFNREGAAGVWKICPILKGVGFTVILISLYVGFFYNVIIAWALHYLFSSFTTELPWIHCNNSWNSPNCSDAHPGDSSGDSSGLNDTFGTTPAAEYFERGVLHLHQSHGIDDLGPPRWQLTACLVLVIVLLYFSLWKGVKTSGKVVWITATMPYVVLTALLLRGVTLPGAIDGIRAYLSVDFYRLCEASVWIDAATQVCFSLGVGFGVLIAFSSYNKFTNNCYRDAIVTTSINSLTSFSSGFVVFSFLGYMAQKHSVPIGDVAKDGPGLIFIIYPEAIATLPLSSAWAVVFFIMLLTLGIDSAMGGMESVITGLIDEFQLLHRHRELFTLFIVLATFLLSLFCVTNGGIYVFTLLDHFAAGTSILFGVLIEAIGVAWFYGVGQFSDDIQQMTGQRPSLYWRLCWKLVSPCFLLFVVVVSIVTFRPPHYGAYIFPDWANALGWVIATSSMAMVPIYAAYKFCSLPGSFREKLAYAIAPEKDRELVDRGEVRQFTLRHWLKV

CN(C)CCc1c[nH]c2cccc(OC(=O)c3cccc4c3OCCO4)c12 [C(XX)]
clearance [1, 4]: 320 mL/min/kg | AUC(0-inf) ([1]; iv, 1 mg/kg, C(XX) in plasma, 1 mg/kg i.v. C(XX), Mean ± SD, read-out: AUC0-inf): 53 ± 8.26 ng·h/mL | AUC(0-t) ([1]; iv, 1 mg/kg, C(XX) in plasma, 1 mg/kg i.v. C(XX), Mean ± SD, read-out: AUC0-tlast): 52.8 ± 8.3 ng·h/mL | half-life ([1]; iv, 1 mg/kg, C(XX) in plasma, 1 mg/kg i.v. C(XX), Mean ± SD, read-out: Apparent t1/2 (converted)): 33.8 ± 3.23 min | C0 [1, 4]: 161 ± 37.3 ng/mL | MRT inf ([1]; iv, 1 mg/kg, C(XX) in plasma, 1 mg/kg i.v. C(XX), Mean ± SD, read-out: MRT0-inf): 24.7 ± 2.27 min | Vd [1, 4]: 7.94 ± 1.79 L/kg | clearance [1, 5]: 345 mL/min/kg | AUC(0-inf) ([1]; iv, 1 mg/kg, C(XX) in plasma, 1 mg/kg i.v. C(XX), per animal, read-out: AUC0-inf): 48.3 ng·h/mL | AUC(0-t) ([1]; iv, 1 mg/kg, C(XX) in plasma, 1 mg/kg i.v. C(XX), per animal, read-out: AUC0-tlast): 48.1 ng·h/mL | half-life ([1]; iv, 1 mg/kg, C(XX) in plasma, 1 mg/kg i.v. C(XX), per animal, read-out: Apparent t1/2 (converted)): 37.5 min | C0 [1, 5]: 140 ng/mL | MRT inf ([1]; iv, 1 mg/kg, C(XX) in plasma, 1 mg/kg i.v. C(XX), per animal, read-out: MRT0-inf): 26.2 min | Vd [1, 5]: 9.03 L/kg | concentration at 0.25 h [1, 6]: 0.603 ± 0.127 ng/mL | concentration at 0.25 h [1, 7]: 0.701 ng/mL | concentration at 0.5 h [1, 6]: 0.62 ± 0.0996 ng/mL | concentration at 0.5 h [1, 7]: 0.702 ng/mL | concentration at 1 h [1, 6]: 0.294 ± 0.0987 ng/mL | concentration at 1 h [1, 7]: 0.396 ng/mL | concentration at 0.25 h [1, 8]: 1.71 ± 0.22 ng/mL | concentration at 0.25 h [1, 9]: 1.49 ng/mL | concentration at 0.5 h [1, 8]: 1.34 ± 0.179 ng/mL | concentration at 0.5 h [1, 9]: 1.45 ng/mL | concentration at 1 h [1, 8]: 0.572 ± 0.164 ng/mL | concentration at 1 h [1, 9]: 0.43 ng/mL | concentration at 2 h [1, 8]: 0.175 ± 0.0621 ng/mL | concentration at 2 h [1, 9]: 0.124 ng/mL | concentration at 0.25 h [1, 10]: 7.47 ± 3.92 ng/mL | concentration at 0.5 h [1, 10]: 4.15 ± 1.52 ng/mL | concentration at 1 h [1, 10]: 1.99 ± 0.657 ng/mL | concentration at 1 h [1, 11]: 1.53 ng/mL | concentration at 2 h [1, 10]: 0.773 ± 0.279 ng/mL | concentration at 4 h [1, 12]: 0.264 ng/mL | concentration at 4 h [1, 11]: 0.225 ng/mL | concentration at 6 h ([1]; oral, 10 mg/kg, 10 mg/kg oral C(XX), 6 h, mean (n = 2), read-out: Plasma concentration of C(XX)): 0.36 ng/mL | concentration at 8 h [1, 12]: 0.26 ng/mL | concentration at 8 h [1, 11]: 0.335 ng/mL | Cmax ([1]; po, 1 mg/kg, C(XX) in plasma, 1 mg/kg oral C(XX), Mean ± SD, read-out: Cmax): 0.62 ± 0.0996 ng/mL | Tmax ([1]; po, 1 mg/kg, C(XX) in plasma, 1 mg/kg oral C(XX), Mean ± SD, read-out: tmax): 25 ± 8.64 min | Cmax ([1]; po, 1 mg/kg, C(XX) in plasma, 1 mg/kg oral C(XX), per animal, read-out: Cmax): 0.702 ng/mL | Tmax ([1]; po, 1 mg/kg, C(XX) in plasma, 1 mg/kg oral C(XX), per animal, read-out: tmax): 30 min | half-life ([1]; po, 3 mg/kg, 3 mg/kg p.o. C(XX), mean ± SD, read-out: Apparent t1/2 of C(XX) in plasma (converted)): 31.7 min | AUC(0-inf) ([1]; po, 3 mg/kg, C(XX) in plasma, 3 mg/kg oral C(XX), Mean ± SD, read-out: AUC0-inf): 1.51 ± 0.21 ng·h/mL | AUC(0-t) ([1]; po, 3 mg/kg, C(XX) in plasma, 3 mg/kg oral C(XX), Mean ± SD, read-out: AUC0-tlast): 1.37 ± 0.137 ng·h/mL | half-life ([1]; po, 3 mg/kg, C(XX) in plasma, 3 mg/kg oral C(XX), Mean ± SD, read-out: Apparent t1/2 (converted)): 31.7 ± 7.38 min | Cmax ([1]; po, 3 mg/kg, C(XX) in plasma, 3 mg/kg oral C(XX), Mean ± SD, read-out: Cmax): 1.71 ± 0.22 ng/mL | MRT inf ([1]; po, 3 mg/kg, C(XX) in plasma, 3 mg/kg oral C(XX), Mean ± SD, read-out: MRT0-inf): 53.9 ± 9.48 min | Tmax ([1]; po, 3 mg/kg, C(XX) in plasma, 3 mg/kg oral C(XX), Mean ± SD, read-out: tmax): 15 min | AUC(0-inf) ([1]; po, 3 mg/kg, C(XX) in plasma, 3 mg/kg oral C(XX), per animal, read-out: AUC0-inf): 1.3 ng·h/mL | AUC(0-t) ([1]; po, 3 mg/kg, C(XX) in plasma, 3 mg/kg oral C(XX), per animal, read-out: AUC0-tlast): 1.22 ng·h/mL | half-life ([1]; po, 3 mg/kg, C(XX) in plasma, 3 mg/kg oral C(XX), per animal, read-out: Apparent t1/2 (converted)): 26.3 min | Cmax ([1]; po, 3 mg/kg, C(XX) in plasma, 3 mg/kg oral C(XX), per animal, read-out: Cmax): 1.49 ng/mL | MRT inf ([1]; po, 3 mg/kg, C(XX) in plasma, 3 mg/kg oral C(XX), per animal, read-out: MRT0-inf): 47.6 min | Tmax ([1]; po, 3 mg/kg, C(XX) in plasma, 3 mg/kg oral C(XX), per animal, read-out: tmax): 15 min | AUC(0-inf) ([1]; po, 10 mg/kg, 10 mg/kg oral C(XX), individual animals, read-out: AUC0-inf of C(XX) in plasma): 5.4 ng·h/mL | AUC(0-t) ([1]; po, 10 mg/kg, 10 mg/kg oral C(XX), individual animals, read-out: AUC0-tlast of C(XX) in plasma): 5.65 ng·h/mL | Tmax ([1]; po, 10 mg/kg, 10 mg/kg oral C(XX), individual animals, read-out: tmax of C(XX) in plasma): 15 min | AUC(0-inf) ([1]; po, 10 mg/kg, 10 mg/kg oral C(XX), mean (n = 2), read-out: AUC0-inf of C(XX) in plasma): 8.03 ng·h/mL | half-life ([1]; po, 10 mg/kg, 10 mg/kg oral C(XX), mean (n = 2), read-out: Apparent t1/2 of C(XX) in plasma (converted)): 186 min | MRT inf ([1]; po, 10 mg/kg, 10 mg/kg oral C(XX), mean (n = 2), read-out: MRT0-inf of C(XX) in plasma): 131 min | AUC(0-t) ([1]; po, 10 mg/kg, 10 mg/kg oral C(XX), mean ± SD, read-out: AUC0-tlast of C(XX) in plasma): 6.6 ± 2.24 ng·h/mL | Cmax ([1]; po, 10 mg/kg, 10 mg/kg oral C(XX), mean ± SD, read-out: Cmax of C(XX) in plasma): 7.47 ± 3.92 ng/mL | Tmax ([1]; po, 10 mg/kg, 10 mg/kg oral C(XX), mean ± SD, read-out: tmax of C(XX) in plasma): 15 min | IC50 (DAT): > 100 µM | EC50 (HTR1A (5-HT1A)): 2.03 µM | 5-HT1A receptor modulation, +5-HT1A vs −5-HT1A cultures (5-HT1A receptor): significant receptor modulation | EC50 (OPRD1 [2]): > 100 µM | IC50 (OPRD1 [3]): > 100 µM | EC50 (ADRA2A): > 100 µM

— patent publication US11746087B1, “C4-carboxylic acid-substituted tryptamine derivatives and methods of using” (priority 2022, dated 2023)
